In PubChem BioAssay AID330 (DTP/NCI, 2004):
Values joined by “and” are separate entries in the source; they are usually repeats but may differ in a detail not shown here. Equal values may be shown once. Toxic doses and inconclusive results are not listed. Rule for the calls: active = survival T/C of 150% or more; inactive = T/C below 125% in these data.

Tested on: P388 leukemia ip, CD2F1 mice, survival T/C
Test: NCI In Vivo Anticancer Drug Screen. Data for tumor model P388 Leukemia (intraperitoneal) in CD2F1 (CDF1) mice
Conditions: endpoint: median survival time, higher = longer survival
In short: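 Mice carrying the transplanted tumor received test compound or vehicle. Survival was recorded in each group, and the value is the treated-group measurement divided by that of the vehicle-treated control group.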

[1] = dose: 100.0 mg/kg/injection, schedule: Q04DX003 (ip), vehicle: saline with Tween-80
[2] = dose: 200.0 mg/kg/injection, schedule: Q04DX003 (ip), vehicle: saline with Tween-80
[3] = dose: 25.0 mg/kg/injection, schedule: Q01DX009 (ip), vehicle: saline with Tween-80
[4] = dose: 12.5 mg/kg/injection, schedule: Q01DX005 (ip), vehicle: saline with Tween-80
[5] = dose: 50.0 mg/kg/injection, schedule: Q01DX009 (ip), vehicle: saline
[6] = dose: 100.0 mg/kg/injection, schedule: Q01DX009 (ip), vehicle: saline
[7] = dose: 200.0 mg/kg/injection, schedule: Q01DX009 (ip), vehicle: saline
[8] = dose: 50.0 mg/kg/injection, schedule: Q01DX005 (ip), vehicle: saline with Tween-80
[9] = dose: 100.0 mg/kg/injection, schedule: Q01DX005 (ip), vehicle: saline with Tween-80
[10] = dose: 50.0 mg/kg/injection, schedule: Q01DX005 (ip), vehicle: Klucel (hydroxypropylcellulose) (HPC)
[11] = dose: 100.0 mg/kg/injection, schedule: Q01DX005 (ip), vehicle: Klucel (hydroxypropylcellulose) (HPC)
[12] = dose: 200.0 mg/kg/injection, schedule: Q01DX005 (ip), vehicle: Klucel (hydroxypropylcellulose) (HPC)

Measured: T/C

COc1cc2c(c(OC)c1OC)-c1ccc(OC)c(=O)cc1[C@@H](NC(=O)C(F)(F)F)CC2
inactive: dose: 0.09 mg/kg/injection, schedule: Q01DX009 (ip), vehicle: Klucel (hydroxypropylcellulose) (HPC) 121 % of control | dose: 0.18 mg/kg/injection, schedule: Q01DX009 (ip), vehicle: Klucel (hydroxypropylcellulose) (HPC) 123 % of control | dose: 6.0 micrograms/kg/injection, schedule: Q01DX009 (ip), vehicle: Klucel (hydroxypropylcellulose) (HPC) 101 % of control | dose: 12.0 micrograms/kg/injection, schedule: Q01DX009 (ip), vehicle: Klucel (hydroxypropylcellulose) (HPC) 111 % of control | dose: 24.0 micrograms/kg/injection, schedule: Q01DX009 (ip), vehicle: Klucel (hydroxypropylcellulose) (HPC) 112 % of control | dose: 24.38 micrograms/kg/injection, schedule: Q01DX009 (ip), vehicle: Klucel (hydroxypropylcellulose) (HPC) 120 % of control | dose: 48.0 micrograms/kg/injection, schedule: Q01DX009 (ip), vehicle: Klucel (hydroxypropylcellulose) (HPC) 121 % of control | dose: 48.75 micrograms/kg/injection, schedule: Q01DX009 (ip), vehicle: Klucel (hydroxypropylcellulose) (HPC) 120 % of control | dose: 97.0 micrograms/kg/injection, schedule: Q01DX009 (ip), vehicle: Klucel (hydroxypropylcellulose) (HPC) 119 % of control | dose: 97.5 micrograms/kg/injection, schedule: Q01DX009 (ip), vehicle: Klucel (hydroxypropylcellulose) (HPC) 118 % of control | dose: 195.0 micrograms/kg/injection, schedule: Q01DX009 (ip), vehicle: Klucel (hydroxypropylcellulose) (HPC) 122 % of control
active: dose: 390.0 micrograms/kg/injection, schedule: Q01DX009 (ip), vehicle: Klucel (hydroxypropylcellulose) (HPC) 155 % of control

Cc1cc(Cl)ccc1NC(=O)COc1ccc(Cl)cc1Cl
inactive: dose: 50.0 mg/kg/injection, schedule: Q04DX003 (ip), vehicle: saline with Tween-80 100 % of control | [1] 95 % of control | [2] 90 % of control

NNC(=O)CC(NN)c1ccccc1O (stereo unspecified)
inactive: dose: 60.0 mg/kg/injection, schedule: Q01DX005 (ip), vehicle: saline with Tween-80 104 % of control | dose: 120.0 mg/kg/injection, schedule: Q01DX005 (ip), vehicle: saline with Tween-80 105 % of control | dose: 240.0 mg/kg/injection, schedule: Q01DX005 (ip), vehicle: saline with Tween-80 105 % of control

[N-]=[N+]=NC1=CC(=O)C(c2ccccc2)=CC1=O
inactive: [3] 100 % of control | dose: 50.0 mg/kg/injection, schedule: Q01DX009 (ip), vehicle: saline with Tween-80 95 % of control | dose: 200.0 mg/kg/injection, schedule: Q01DX009 (ip), vehicle: saline with Tween-80 103 % of control

CCOC(=O)c1n[nH]c(C)c1CC(N)c1ccccc1 (stereo unspecified)
inactive: [4] 100 % of control | dose: 25.0 mg/kg/injection, schedule: Q01DX005 (ip), vehicle: saline with Tween-80 96 % of control

CC1C/C(=C2/NC3CCCCC3NC2=O)C(=O)O1 (stereo unspecified)
inactive: dose: 6.25 mg/kg/injection, schedule: Q01DX009 (ip), vehicle: saline with Tween-80 100 % of control | dose: 12.5 mg/kg/injection, schedule: Q01DX009 (ip), vehicle: saline with Tween-80 95 % of control | [3] 92 % of control

CNC(=S)NNc1nnc(NNC(=S)NC)c2ccccc12
inactive: [5] 94 % of control | [6] 97 % of control | [7] 102 % of control

CC(=O)OC1CC2(C)C(c3ccoc3)CC3OC32C2(C)C(=O)C(O)=C3C(C)(C)C(=O)C=CC3(C)C12 (stereo unspecified)
inactive: dose: 3.0 mg/kg/injection, schedule: Q01DX009 (ip), vehicle: Klucel (hydroxypropylcellulose) (HPC) 96 % of control | dose: 6.0 mg/kg/injection, schedule: Q01DX009 (ip), vehicle: Klucel (hydroxypropylcellulose) (HPC) 100 % of control | dose: 12.0 mg/kg/injection, schedule: Q01DX009 (ip), vehicle: Klucel (hydroxypropylcellulose) (HPC) 100 % of control | dose: 24.0 mg/kg/injection, schedule: Q01DX009 (ip), vehicle: Klucel (hydroxypropylcellulose) (HPC) 99 % of control

CCCCN(CCCC)CC(O)c1ccc(OC)c2ccccc12 (stereo unspecified)
inactive: [8] 102 % of control | [9] 107 % of control | dose: 200.0 mg/kg/injection, schedule: Q01DX005 (ip), vehicle: saline with Tween-80 98 % of control

Nc1ccccc1Nc1ccncc1
inactive: dose: 25.0 mg/kg/injection, schedule: Q01DX009 (ip), vehicle: suspension in saline 97 % of control | dose: 50.0 mg/kg/injection, schedule: Q01DX009 (ip), vehicle: suspension in saline 100 % of control | dose: 100.0 mg/kg/injection, schedule: Q01DX009 (ip), vehicle: suspension in saline 97 % of control

CCCCCCCCCCCCCCCC(=O)OC12CC(C)C3(O)C(C=C(CO)CC4(O)C(=O)C(C)=CC43)C1C2(C)CO (stereo unspecified)
inactive: dose: 0.03 mg/kg/injection, schedule: Q01DX009 (ip), vehicle: saline with Tween-80 119 % of control | dose: 0.06 mg/kg/injection, schedule: Q01DX009 (ip), vehicle: saline with Tween-80 100 % of control | dose: 0.9 micrograms/kg/injection, schedule: Q01DX009 (ip), vehicle: other 100 % of control | dose: 1.8 micrograms/kg/injection, schedule: Q01DX009 (ip), vehicle: other 99 % of control | dose: 3.7 micrograms/kg/injection, schedule: Q01DX009 (ip), vehicle: other 101 % of control | dose: 7.5 micrograms/kg/injection, schedule: Q01DX009 (ip), vehicle: other 101 % of control | dose: 15.0 micrograms/kg/injection, schedule: Q01DX009 (ip), vehicle: other 104 % of control | dose: 30.0 micrograms/kg/injection, schedule: Q01DX009 (ip), vehicle: other 104 % of control

Cc1ccc(S(=O)(=O)OC2CC(C(=O)O)N(S(=O)(=O)c3ccc(C)cc3)C2)cc1 (stereo unspecified)
inactive: [1] 100 % of control | [2] 95 % of control | dose: 400.0 mg/kg/injection, schedule: Q04DX003 (ip), vehicle: saline with Tween-80 95 % of control

COC(=O)C(S)(NC(C)=O)C(C)C (stereo unspecified)
inactive: [5] 102 % of control | [6] 98 % of control | [7] 104 % of control

c1ccc2c(c1)cnc1ccccc12
inactive: [10] 97 % of control | [11] 104 % of control | [12] 104 % of control

CCn1c(=O)n(C)c(=O)c2[nH]c(Cl)nc21
inactive: dose: 16.0 mg/kg/injection, schedule: Q01DX009 (ip), vehicle: Klucel (hydroxypropylcellulose) (HPC) 105 % of control | dose: 25.0 mg/kg/injection, schedule: Q01DX009 (ip), vehicle: Klucel (hydroxypropylcellulose) (HPC) 92 % of control | dose: 32.0 mg/kg/injection, schedule: Q01DX009 (ip), vehicle: Klucel (hydroxypropylcellulose) (HPC) 104 % of control | dose: 50.0 mg/kg/injection, schedule: Q01DX009 (ip), vehicle: Klucel (hydroxypropylcellulose) (HPC) 91 % of control | dose: 64.0 mg/kg/injection, schedule: Q01DX009 (ip), vehicle: Klucel (hydroxypropylcellulose) (HPC) 97 % of control | dose: 100.0 mg/kg/injection, schedule: Q01DX009 (ip), vehicle: Klucel (hydroxypropylcellulose) (HPC) 94 % of control

Cc1nc2ccc(Br)cc2c(=O)n1-c1ccc(-c2n[nH]c(=S)n2-c2ccccc2)cc1
inactive: [10] 102 % of control | [11] 104 % of control | [12] 104 % of control

C[C@@H]1C[C@@H]2c3cccc4[nH]cc(c34)C[C@H]2N(C)C1
inactive: dose: 3.12 mg/kg/injection, schedule: Q01DX005 (ip), vehicle: saline with Tween-80 98 % of control | dose: 6.25 mg/kg/injection, schedule: Q01DX005 (ip), vehicle: saline with Tween-80 98 % of control | [4] 100 % of control

CN(C)CCC(c1ccccc1)C(CO)c1ccccc1 (stereo unspecified)
inactive: dose: 100.0 mg/kg/injection, schedule: Q01DX001 (ip), vehicle: Klucel (hydroxypropylcellulose) (HPC) 116 % of control | dose: 200.0 mg/kg/injection, schedule: Q01DX001 (ip), vehicle: Klucel (hydroxypropylcellulose) (HPC) 102 % of control

O=C(c1ccccc1)C1CCCN(CCc2ccccc2)C1 (stereo unspecified)
inactive: [8] 108 % of control | [9] 109 % of control

CCC1CCC2COCN2C1 (stereo unspecified)
inactive: dose: 25.0 mg/kg/injection, schedule: Q01DX005 (ip), vehicle: saline 104 % of control | dose: 50.0 mg/kg/injection, schedule: Q01DX005 (ip), vehicle: saline 120 % of control | dose: 200.0 mg/kg/injection, schedule: Q01DX005 (ip), vehicle: saline 117 % of control and 118 % of control

O=Cc1cc2ccc3ccccc3c2[nH]1
inactive: dose: 200.0 mg/kg/injection, schedule: Q01DX001 (ip), vehicle: saline with Tween-80 90 % of control
